In US8377949B2, “Quinazolinedione chymase inhibitors” (Boehringer Ingelheim International GmbH, priority 2007, dated 2013) one finds IC50 data, which are given here for 30 compounds.

Molecules are shown by their SMILES. “And” between values parts separate entries of the source, which are not always exact repeats. Equal entries are not always repeated.

What is called IC50 is the concentration at which inhibition is half-maximal.

The assay deals with T1, Chymase (Homo sapiens, UniProt P23946).
T1 sequence (P23946 22-247): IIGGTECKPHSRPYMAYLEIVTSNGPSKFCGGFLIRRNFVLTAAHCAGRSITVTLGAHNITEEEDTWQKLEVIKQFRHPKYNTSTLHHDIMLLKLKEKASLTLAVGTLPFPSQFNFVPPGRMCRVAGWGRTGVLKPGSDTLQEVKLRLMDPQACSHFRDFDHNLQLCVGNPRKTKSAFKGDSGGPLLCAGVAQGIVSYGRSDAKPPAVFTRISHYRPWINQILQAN
In words: In vitro Assay for Inhibition of Chymase. The format is biochemical. Particulars: 500 pM chymase, 100 nM rhodamine 110 peptide substrate, 1 hour at 28° C., fluorescence. The protocol:
In vitro Assay for Inhibition of Chymase
Chymase assays were performed in a total volume of 15 μL in Corning black opaque 384-well microtiter plates with a non-binding surface (Coming, N.Y.). The assay buffer was comprised of 20 mM Tris HCl pH 8.0, 50 mM NaCl, 0.01% CHAPS. The test compounds were serially diluted 3-fold with neat DMSO in a 96-well polypropylene plate from a 10 mM DMSO stock to give the 10 point dose response curve. 3 μL of the resulting DMSO solution were transferred to a 384-well polypropylene plate in duplicate, and 37 μL of assay buffer was added. Chymase was added to the assay plate in 3 uL of assay buffer followed by 2 uL of the appropriate compound dilution using a PlateMate Plus (Matrix Technologies Corp., Hudson, N.H.). The reaction was initiated by the addition of 10 uL rhodamine 110, bis-(succinoyl-L-alanyl-L-alanyl-L-prolyl-L-phenylalanylamide) (American Peptides, Sunnyvale, Calif.) in assay buffer containing 150 μM tris(2-carboxyethyl)phosphine (TCEP, Pierce Chemical, Rockford, Ill.) using a Multidrop (Thermo Electron Corp., Waltham, Mass.). Final assay concentrations were 500 pM chymase, 100 nM substrate, 100 μM TCEP, and 1% DMSO. The plates were incubated at 28° C. and 80% humidity for 1 hour, at which time the fluorescence was read on a Viewlux 1430 Microplate Imager (Perkin Elmer Life Sciences, Boston, Mass.) with 485 nm excitation, 530 nm emission, and a fluorescein dichroic mirror. The percentage of control values were calculated relative to assay blanks containing complete reaction minus chymase and a 100% control containing assay buffer with 1% DMSO in place of compound. IC50 values were obtained by fitting the data using XLFit4 (IDBS Software).
In the case of `Cc1cccc2c1c(Cn1c(=O)n(CC3(C(=O)O)CCCCC3)c(=O)c3ccccc31)cn2C` [1-[1-(1,4-Dimethyl-1H-indol-3-ylmethyl)-2,4-dioxo-1,4-dihydro-2H-quinazolin-3-ylmethyl]-cyclohexanecarboxylic acid], the IC50 was 3 nM.
In turn, `CCC(C(=O)O)n1c(=O)c2ccccc2n(Cc2cn(C)c3cccc(C)c23)c1=O` (stereo not drawn) [2-[1-(1,4-Dimethyl-1H-indol-3-ylmethyl)-2,4-dioxo-1,4-dihydro-2H-quinazolin-3-yl]-butyric acid] came in with an IC50 of 4 nM.
To `CCCCC(C(=O)O)n1c(=O)c2ccccc2n(Cc2cn(C)c3cccc(C)c23)c1=O` (stereo not drawn) [2-[1-(1,4-Dimethyl-1H-indol-3-ylmethyl)-2,4-dioxo-1,4-dihydro-2H-quinazolin-3-yl]-hexanoic acid] belongs 3 nM.
On to `CCCC(C(=O)O)n1c(=O)c2ccccc2n(Cc2cn(C)c3cccc(C)c23)c1=O` (stereo not drawn) [2-[1-(1,4-Dimethyl-1H-indol-3-ylmethyl)-2,4-dioxo-1,4-dihydro-2H-quinazolin-3-yl]-pentanoic acid], for which the IC50 was 4 nM.
In turn, `CCCCC(CC(=O)O)n1c(=O)c2ccccc2n(Cc2cn(C)c3cccc(C)c23)c1=O` (stereo not drawn) [3-[1-(1,4-Dimethyl-1H-indol-3-ylmethyl)-2,4-dioxo-1,4-dihydro-2H-quinazolin-3-yl]-heptanoic acid] displayed an IC50 of 4 nM.
The compound `CCC(CC(=O)O)n1c(=O)c2ccccc2n(Cc2nsc3cc(C)cc(C)c23)c1=O` (stereo not drawn) [3-[1-(4,6-Dimethyl-1,2-benzisothiazol-3-ylmethyl)-2,4-dioxo-1,4-dihydro-2H-quinazolin-3-yl]-pentanoic acid] returned an IC50 of 2 nM.
`Cc1cccc2c1c(Cn1c(=O)n(CC(CC(=O)O)c3ccccc3)c(=O)c3ccccc31)cn2C` (stereo not drawn) [4-[1-(1,4-Dimethyl-1H-indol-3-ylmethyl)-2,4-dioxo-1,4-dihydro-2H-quinazolin-3-yl]-3-phenyl-butyric acid] displayed a half-maximal inhibitory concentration (IC50) of 3 nM.
Compound `CC[C@H](C(=O)O)n1c(=O)c2ccccc2n(Cc2cn(C)c3cccc(C)c23)c1=O` [(R)-2-[1-(1,4-Dimethyl-1H-indol-3-ylmethyl)-2,4-dioxo-1,4-dihydro-2H-quinazolin-3-yl]-butyric acid] showed an IC50 of 1.4 nM.
With `CCCC[C@H](C(=O)O)n1c(=O)c2ccccc2n(Cc2cn(C)c3cccc(C)c23)c1=O` [(R)-2-[1-(1,4-Dimethyl-1H-indol-3-ylmethyl)-2,4-dioxo-1,4-dihydro-2H-quinazolin-3-yl]-hexanoic acid], the IC50 is 3 nM and 0.8 nM.
`Cc1cccc2c1c(Cn1c(=O)n([C@H](C)C(=O)O)c(=O)c3ccccc31)cn2C` [(R)-2-[1-(1,4-Dimethyl-1H-indol-3-ylmethyl)-2,4-dioxo-1,4-dihydro-2H-quinazolin-3-yl]-propionic acid] yielded a half-inhibitory concentration (IC50) of 1.9 nM.
As to `CCCC[C@H](C(=O)O)n1c(=O)c2cc(OC)ccc2n(Cc2cn(C)c3cccc(C)c23)c1=O` [(R)-2-[1-(1,4-Dimethyl-1H-indol-3-ylmethyl)-6-methoxy-2,4-dioxo-1,4-dihydro-2H-quinazolin-3-yl]-hexanoic acid], half-maximal inhibition (IC50) required 1.6 nM.
On to `CCCC[C@H](C(=O)O)n1c(=O)c2ccccc2n(Cc2nsc3cc(C)cc(C)c23)c1=O` [(R)-2-[1-(4,6-Dimethyl-1,2-benzisothiazol-3-ylmethyl)-2,4-dioxo-1,4-dihydro-2H-quinazolin-3-yl]-hexanoic acid], for which the half-maximal inhibitory concentration (IC50) was found to be 3 nM.
With `CCC[C@H](C(=O)O)n1c(=O)c2ccccc2n(Cc2cn(C)c3cc(C)cc(C)c23)c1=O` [(R)-2-[2,4-Dioxo-1-(1,4,6-trimethyl-1H-indol-3-ylmethyl)-1,4-dihydro-2H-quinazolin-3-yl]-pentanoic acid], the midpoint of inhibition, the IC50, lay at 0.27 nM.
The compound `Cc1cccc2c1c(Cn1c(=O)n([C@H](CC(=O)O)c3ccccc3)c(=O)c3ccccc31)cn2C` [(R)-3-[1-(1,4-Dimethyl-1H-indol-3-ylmethyl)-2,4-dioxo-1,4-dihydro-2H-quinazolin-3-yl]-3-phenyl-propionic acid] yielded an IC50 of 1 nM.
The compound `CC[C@H](CC(=O)O)n1c(=O)c2ccccc2n(Cc2cn(C)c3cccc(C)c23)c1=O` [(R)-3-[1-(1,4-Dimethyl-1H-indol-3-ylmethyl)-2,4-dioxo-1,4-dihydro-2H-quinazolin-3-yl]-pentanoic acid] displayed an IC50 of 3.9 nM.
To `Cc1cccc2c1c(Cn1c(=O)n([C@@H](C(=O)O)c3ccccc3)c(=O)c3ccccc31)cn2C` [(R)-[1-(1,4-Dimethyl-1H-indol-3-ylmethyl)-2,4-dioxo-1,4-dihydro-2H-quinazolin-3-yl]-phenyl-acetic acid] belongs 1 nM; to `Cc1cc(C)c2c(Cn3c(=O)n([C@@H](C(=O)O)c4ccccc4)c(=O)c4ccccc43)nsc2c1` [(R)-[1-(4,6-Dimethyl-1,2-benzisothiazol-3-ylmethyl)-2,4-dioxo-1,4-dihydro-2H-quinazolin-3-yl]-phenyl-acetic acid], 1.8 nM.
The compound `CC[C@@H](C(=O)O)n1c(=O)c2ccccc2n(Cc2cn(C)c3cccc(C)c23)c1=O` [(S)-2-[1-(1,4-Dimethyl-1H-indol-3-ylmethyl)-2,4-dioxo-1,4-dihydro-2H-quinazolin-3-yl]-butyric acid] registered an IC50 of 1.7 nM.
As for `CCCC[C@@H](C(=O)O)n1c(=O)c2ccccc2n(Cc2cn(C)c3cccc(C)c23)c1=O` [(S)-2-[1-(1,4-Dimethyl-1H-indol-3-ylmethyl)-2,4-dioxo-1,4-dihydro-2H-quinazolin-3-yl]-hexanoic acid], half-maximal inhibition (IC50) required 2 nM.
To `CCC[C@@H](C(=O)O)n1c(=O)c2ccccc2n(Cc2cn(C)c3cccc(C)c23)c1=O` [(S)-2-[1-(1,4-Dimethyl-1H-indol-3-ylmethyl)-2,4-dioxo-1,4-dihydro-2H-quinazolin-3-yl]-pentanoic acid] belongs 1.5 nM; to `Cc1cccc2c1c(Cn1c(=O)n([C@@H](C)C(=O)O)c(=O)c3ccccc31)cn2C` [(S)-2-[1-(1,4-Dimethyl-1H-indol-3-ylmethyl)-2,4-dioxo-1,4-dihydro-2H-quinazolin-3-yl]-propionic acid], 2.5 nM; to `CCCC[C@@H](C(=O)O)n1c(=O)c2cc(OC)ccc2n(Cc2cn(C)c3cccc(C)c23)c1=O` [(S)-2-[1-(1,4-Dimethyl-1H-indol-3-ylmethyl)-6-methoxy-2,4-dioxo-1,4-dihydro-2H-quinazolin-3-yl]-hexanoic acid], 2.6 nM.
The compound `CCCC[C@@H](C(=O)O)n1c(=O)c2ccc(OC)cc2n(Cc2cn(C)c3cccc(C)c23)c1=O` [(S)-2-[1-(1,4-Dimethyl-1H-indol-3-ylmethyl)-7-methoxy-2,4-dioxo-1,4-dihydro-2H-quinazolin-3-yl]-hexanoic acid] returned an IC50 of 4.9 nM.
To `CCCC[C@@H](C(=O)O)n1c(=O)c2cc(OC)ccc2n(Cc2nsc3cc(C)cc(C)c23)c1=O` [(S)-2-[1-(4,6-Dimethyl-1,2-benzisothiazol-3-ylmethyl)-6-methoxy-2,4-dioxo-1,4-dihydro-2H-quinazolin-3-yl]-hexanoic acid] belongs 1.8 nM.
Turning to `CC[C@@H](CC(=O)O)n1c(=O)c2ccccc2n(Cc2cn(C)c3cccc(C)c23)c1=O` [(S)-3-[1-(1,4-Dimethyl-1H-indol-3-ylmethyl)-2,4-dioxo-1,4-dihydro-2H-quinazolin-3-yl]-pentanoic acid], the IC50 turned out to be 3.2 nM.
Consider `CC[C@@H](CC(=O)O)n1c(=O)c2ccccc2n(Cc2nsc3cc(C)cc(C)c23)c1=O` [(S)-3-[1-(4,6-Dimethyl-benzo[d]isothiazol-3-ylmethyl)-2,4-dioxo-1,4-dihydro-2H-quinazolin-3-yl]-pentanoic acid], for which the IC50 was determined as 3.7 nM.
Turning to `Cc1cc(C)c2c(Cn3c(=O)n([C@H](C(=O)O)c4ccc(Cl)cc4)c(=O)c4ccccc43)nsc2c1` [(S)-(4-Chloro-phenyl)-[1-(4,6-dimethyl-1,2-benzisothiazol-3-ylmethyl)-2,4-dioxo-1,4-dihydro-2H-quinazolin-3-yl]-acetic acid], the 50% inhibitory concentration (IC50) turned out to be 0.92 nM.
Regarding `Cc1cccc2c1c(Cn1c(=O)n([C@H](C(=O)O)c3ccccc3)c(=O)c3ccccc31)cn2C` [(S)-[1-(1,4-Dimethyl-1H-indol-3-ylmethyl)-2,4-dioxo-1,4-dihydro-2H-quinazolin-3-yl]-phenyl-acetic acid], the concentration for half-maximal inhibition (IC50) was 2 nM.
The same measure for `Cc1cc(C)c2c(Cn3c(=O)n([C@H](C(=O)O)c4ccccc4)c(=O)c4ccccc43)nsc2c1` [(S)-[1-(4,6-Dimethyl-1,2-benzisothiazol-3-ylmethyl)-2,4-dioxo-1,4-dihydro-2H-quinazolin-3-yl]-phenyl-acetic acid]: 1 nM; for `Cc1cccc2c1c(Cn1c(=O)n(C3(CC(=O)O)CCCCC3)c(=O)c3ccccc31)cn2C` [{1-[1-(1,4-Dimethyl-1H-indol-3-ylmethyl)-2,4-dioxo-1,4-dihydro-2H-quinazolin-3-yl]-cyclohexyl}-acetic acid]: 3 nM.
